Results taken from PMC11056319, “Targeting PRMT9-mediated arginine methylation suppresses cancer stem cell maintenance and elicits cGAS-mediated anticancer immunity” (Nature Cancer, 2024).

system: Molm13; assay: cells; parameters: Molm13 cell viability screen of virtual-screening hits, 4 days of treatment, per cent of control; details: 1 uM, 4 days, 96 h
Description: We performed virtual screening. Briefly, we screened compounds for binding affinity to PRMT9; compounds were from the National Cancer Institute (NCI) and ZINC library (Fig. 4a,b). […] We used doses of 1 and 5 µM in a Molm13 cell-based viability assay (Extended Data Fig. 6a). […] Specifically, we assessed their effects on PRMT9 catalysis (Extended Data Fig. 6b). […] Cells were treated for 4 days with 1 or 5 μM compounds. For each compound, the number represents its library ID. Experiments were triplicated; P values were derived from t tests. b, R493 methylation assay. […] Catalytic activity was assessed by anti-R493 antibody. Synthesized R493me peptide as positive control. c, Catalysis screen of top 20 compounds. PRMT9 protein was pretreated with indicated compound (10 μM), then incubated with PABPC1 peptides and SAM. d, e, Catalytic activity of indicated compounds based on R493 methylation assay (d). Inhibition curves were calculated based on intensity of dots and normalized to DMSO (e). […] LD2 is designed based on NSC641396 (g). Docking model of NSC641396 in the catalytic pocket (f). h, IC50 analysis of LD2 in B-NHL lines. Cells were treated for 4 days with LD2. […] Cells were treated with a dose titration of 0.5–40 μM LD2 for 48 hr. The inhibition activity of LD2 to PRMT9 (right red curve) was evaluated by calculating the normalized PABPC1 R493 methylation signal. The inhibition activity of LD2 to PRMT5 (right blue curve) was evaluated by calculating the normalized SmB’B’ methylation signal (supplementary Fig. 2). k, Vina docking of LD2 with PRMT9, PRMT5, CARM1 or PRMT7 was performed, and the average docking scores (kcal/mol, with standard deviation) were shown. l, Molecular dynamics simulation analyses of LD2 with PRMT9 or PRMT5.

Compound	% viability
OC(COc1cccc2ccccc12)CN1CCN(c2ccc(Cl)cc2)CC1 (stereo not shown) [NSC91397]	148.7%

same assay, conditions: 5 uM, 4 days, 96 h

Compound	% viability
OC(COc1cccc2ccccc12)CN1CCN(c2ccc(Cl)cc2)CC1 (stereo not shown) [NSC91397]	145.8%

same assay, conditions: Homo sapiens, MOLM-13, 96 h, 4 days

Compound	viability at 1 µM	viability at 5 µM
Cc1c(O)ccc2c(O)c(NC(=O)c3ccc4c(c3)CCC(C)(C)O4)c(=O)oc12 [NSC5157]	94.6%	
Cc1ccc(NC(=S)NC(=O)c2ccccc2)cc1NC(=S)NC(=O)c1ccccc1 [NSC5856]	91.4%	91.5%
c1ccc(-n2c3ccccc3c3ccccc32)cc1 [NSC10416]	99.1%	81.7%
O=C1C(=Nc2cccc(Cl)c2)CC(c2ccc(Cl)cc2)N1c1cccc(Cl)c1 (stereo not shown) [NSC13294]	98.3%	97.9%
CCN(CC)c1ccc(/C=C/c2cc(-c3ccccc3)c3ccccc3n2)cc1 [NSC13487]	93.3%	94.8%
Clc1ccccc1/C=C/c1ccnc2ccccc12 [NSC15784]	85.7%	81.7%
CC(=O)Oc1ccc2cc(-c3ccccc3)c(=O)oc2c1 [NSC17055]		102%
Cn1ncc2c(Nc3ccccc3Cl)nc(Nc3ccccc3Cl)nc21 [NSC19061]	158%	
COC(=O)[C@@H]1[C@H](O)[C@H](C)[C@H](O)[C@H](C)/C=C\C=C(/C)C(=O)Nc2c(C)c(OC(C)=O)c3c(c2O)C(=O)C(C)=C2OCOC(=C23)/C(C)=C/[C@@](C)(O)[C@H](O)[C@@H](C)[C@H]1O [NSC19990]	68.6%	83.8%
C[C@H]1CC[C@@]2(C)[C@@H](CC[C@@H]3[C@@H]2CC[C@]2(C)[C@@H](O)CC[C@@H]32)C1 [NSC21603]		96.5%
c1ccc(Nc2cccc3c(Nc4ccccc4)cccc23)cc1 [NSC24032]	120%	
c1ccc(-c2nc(-c3nccc4ccccc34)oc2-c2ccccc2)cc1 [NSC25457]		110%
Cc1cc(O)c(C(C)C)cc1NC(=O)Nc1cccc2ccccc12 [NSC32673]	90.3%	45.8%
COc1cc2c(cc1OC)C(=O)Cc1ccc3c(c1CN(C)CC2)OCO3 [NSC32984]	137%	
Cc1cc(O)c(C(C)C)cc1N=Cc1cc([N+](=O)[O-])ccc1O [NSC33472]	120%	
O=C(Nc1cccc(-c2ccccc2)c1)N1CCN(C(=O)Nc2cccc(-c3ccccc3)c2)CC1 [NSC37553]	96.2%	
O=C1c2cccc(Oc3ccccc3)c2C(=O)c2cccc(Oc3ccccc3)c21 [NSC37627]	144%	151%
CN1CCN(C(=O)Nc2cccc(-c3ccccc3)c2)CC1 [NSC39352]	96.7%	
COc1ccc2nc(-c3ccc(Cl)cc3)cc(C(=O)O)c2c1 [NSC39984]	76.8%	79.5%
Cc1ccc2c(c1)Sc1c(ccc3ccccc13)N2 [NSC40273]		102%
O=C(O)c1cc2ccccc2cc1Nc1ccccc1 [NSC40275]	116%	

Compound	viability at 1 µM	viability at 5 µM
O=C(Nc1cccc([N+](=O)[O-])c1)c1ccc2ccccc2c1O [NSC50648]	81%	62.1%
COc1ccc(NC(=O)c2cc3ccc4c5ccccc5[nH]c4c3cc2O)cc1 [NSC50654]	127%	134%
Brc1ccc(-c2csc(Nc3nc(-c4ccc(Br)cc4)cs3)n2)cc1 [NSC55691]		114%
Cc1cc(N=Nc2c(O)c3ccccc3[nH]c2=O)ccc1N=Nc1ccc(C(=O)N(C)C)cc1 [NSC58052]	96%	80.5%
CC(=O)O[C@H]1CC[C@@]2(C)[C@@H](CC[C@@H]3[C@@H]2CC(=O)[C@@]2(C)[C@H]3C[C@@H]3CC(C)=CC(=O)[C@@H]32)C1 [NSC59620]		93.6%
Nc1ccc(-c2nc3nc(N)nc(N)c3nc2-c2ccc(N)cc2)cc1 [NSC61642]		116%
Cc1cccc2cc3cccc(C)c3nc12 [NSC61888]	144%	134%
O=C(Nc1ccc(C2=NCCCN2)cc1)Nc1ccc(C2=NCCCN2)cc1 [NSC63680]		75.2%
O=C(Nc1ccc(C2=NCCN2)cc1)c1ccc(Cl)c(C(=O)Nc2ccc(C3=NCCN3)cc2)c1 [NSC67436]	95.2%	81.3%
O=[N+]([O-])c1ccc2[nH]c3nc4ccccc4nc3c2c1 [NSC78697]	169%	157%
COc1ccc2c3c([nH]c2c1)[C@H]1C[C@H]2[C@H](C[C@@H](O)[C@H](OC)[C@H]2CO)CN1CC3 [NSC80137]	82.2%	75.6%
N#Cc1ccc(NC(=O)Nc2ccc(Oc3ccc(NC(=O)Nc4ccc(C#N)cc4)cc3)cc2)cc1 [NSC80734]		67.2%
O=C(/C=C/C(=O)N1CCc2ccccc2C1)N1CCc2ccccc2C1 [NSC87838]	92.3%	92.6%
OC(COc1cccc2ccccc12)CN1CCN(c2ccccc2Cl)CC1 (stereo not shown) [NSC91396]	147%	143%
OC(COc1cccc2ccccc12)CN1CCN(c2ccccc2)CC1 (stereo not shown) [NSC91398]	59.8%	60.9%
Cc1ccc(N2CCN(CC(O)COc3cccc4ccccc34)CC2)cc1 (stereo not shown) [NSC91402]	156%	145%
O=C(/C=C/c1ccc(O)c(O)c1)O[C@@H]1C[C@@](OC(=O)/C=C/c2ccc(O)c(O)c2)(C(=O)O)C[C@@H](O)[C@@H]1O [NSC91529]	110%	
C[C@]12C[C@H](O)[C@H]3[C@@H](CCC4=CC(=O)CC[C@@]43C)[C@@H]1CC[C@@H]2c1csc(-c2ccccc2)n1 [NSC93354]	91.9%	69.1%
CC[C@@]1(O)C(=O)OCc2c1cc1n(c2=O)Cc2cc3ccccc3nc2-1 [NSC94600]	2.48%	1.54%
CC(=O)O[C@H]1CC[C@]2(C)C(=CC[C@H]3[C@H]4C[C@H]5O[C@]6(CC[C@H](C)CN6)[C@H](C)[C@@H]5[C@]4(C)CC[C@@H]32)C1 [NSC96021]	102%	87.9%
c1cc2c3c(cccc3c1)NC1(CCC3(CC1)Nc1cccc4cccc(c14)N3)N2 [NSC97920]	59.1%	8.91%

Compound	viability at 1 µM	viability at 5 µM
Cc1cc2cc3c(=O)[nH]c(=O)[nH]c3nc2cc1C [NSC109174]		79.9%
OC(COc1cccc2ccccc12)CN1CCN(c2ccc(Cl)cc2)CC1 (stereo not shown) [NSC111210]	160%	139%
Oc1ccc2ccccc2c1C=Nc1ccccc1 [NSC111846]	77%	84.6%
Oc1ccccc1N=Cc1c(O)ccc2ccccc12 [NSC111847]		85.7%
Oc1ccc(N=Cc2c(O)ccc3ccccc23)cc1 [NSC111848]	93.1%	74.1%
c1ccc(-c2nc(-c3ccccn3)nc(-c3ccccn3)n2)nc1 [NSC112125]	85.4%	81.8%
c1ccc(-c2ccc(-c3nccc4ccccc34)[nH]2)cc1 [NSC116644]		88.3%
Cc1ccc(-c2nc(-c3nccc4ccccc34)oc2-c2ccccc2)cc1 [NSC116702]	87.8%	150%
O=C(CC1C=Cc2ccccc2N1C(=O)c1ccccc1)c1ccccc1 (stereo not shown) [NSC116709]	90.2%	72.7%
NC1=NC(c2ccc(Cl)cc2)N(c2ccc(S(N)(=O)=O)cc2)C(N)=N1 (stereo not shown) [NSC117268]	90.3%	
O=C(O)c1ccccc1-c1ccccc1C(=O)Nc1ccc2c(c1)nc(O)c1ccccc12 [NSC127133]	99%	102%
Clc1ccccc1-c1nc2ccccc2[nH]1 [NSC128751]	80.4%	80%
CCn1c2ccccc2c2cc(NC(=O)c3ccccc3-c3ccccc3C(=O)O)ccc21 [NSC132232]	91.3%	
CN1C2c3ccccc3C3C4c5ccccc5C(C31)C(C2[N+](=O)[O-])N4C (stereo not shown) [NSC137112]	146%	148%
CCNc1nc(Cl)nc(-c2cn(-c3ccccc3)c3ccccc23)n1 [NSC142446]	87.1%	
O=C(Nc1ccc(Nc2ccncc2)cc1)c1ccc(Nc2ccnc3ccc([N+](=O)[O-])cc23)cc1 [NSC146771]	91.1%	
O=C1c2cccc(Sc3ccccc3)c2C(=O)c2c(Sc3ccccc3)cccc21 [NSC156516]	122%	118%
O=C(Nc1ccc2ccccc2c1)c1ccc(Cl)cc1Cl [NSC158959]		127%
O=C(Nc1ccc(Nc2ccncc2)cc1)c1ccc(Nc2ccnc3ccc([N+](=O)[O-])cc23)cc1[N+](=O)[O-] [NSC202386]	118%	80.4%
O=C(Nc1cccc([N+](=O)[O-])c1)c1cccc(C(=O)Nc2cccc([N+](=O)[O-])c2)c1 [NSC204232]	110%	
O=C(Nc1ccccc1Cl)Oc1ccc(-c2ccccc2)cc1 [NSC204321]		90.1%
